Patent US20220183294A1, “PESTICIDALLY ACTIVE AZOLE AMIDE COMPOUNDS” (SYNGENTA CROP PROTECTION AG, priority 2019, published 2022)

What was measured:
[1] = tested on: Spodoptera littoralis (Egyptian cotton leaf worm); test: Example B9: Spodoptera littoralis (Egyptian cotton leaf worm), sprayed cotton leaf discs; assay type: in vivo; settings: foliar, 72 h, application rate 200 ppm, L1 larvae, 3 days after infestation, read-out: control in at least one of the three categories (mortality, anti-feedant effect, or growth inhibition)
Experimental: Example B9: Spodoptera littoralis (Egyptian cotton leaf worm)
Cotton leaf discs were placed onto agar in 24-well microtiter plates and sprayed with aqueous test solutions prepared from 10′000 ppm DMSO stock solutions. After drying the leaf discs were infested with five L1 larvae. The samples were assessed for mortality, anti-feeding effect, and growth inhibition in comparison to untreated samples 3 days after infestation. Control of Spodoptera littoralis by a test sample is given when at least one of the categories mortality, anti-feedant effect, and growth inhibition is higher than the untreated sample.

[2] = tested on: Diabrotica balteata (Corn root worm); test: Example B1: Diabrotica balteata (Corn root worm), sprayed maize sprouts; assay type: in vivo; settings: 96 h, application rate 200 ppm, L2 larvae, 4 days after infestation, read-out: control in at least one of the two categories (mortality or growth inhibition)
Experimental: Example B1: Diabrotica balteata (Corn root worm)
Maize sprouts placed onto an agar layer in 24-well microtiter plates were treated with aqueous test solutions prepared from 10′000 ppm DMSO stock solutions by spraying. After drying, the plates were infested with L2 larvae (6 to 10 per well). The samples were assessed for mortality and growth inhibition in comparison to untreated samples 4 days after infestation.
(§1) The following compounds gave an effect of at least 80% control in at least one of the two categories (mortality or growth inhibition) at an application rate of 200 ppm: […]

[3] = tested on: Plutella xylostella (Diamondback Moth); test: Example B13: Plutella xylostella (Diamondback Moth), artificial diet, 96-well; assay type: in vivo; settings: 216 h, application rate 500 ppm, eggs/L1 larvae, 9 days after infestation
Experimental: Example B13: Plutella xylostella (Diamondback Moth)
96-well microtiter plates containing artificial diet were treated with aqueous test solutions, prepared from 10′000 ppm DMSO stock solutions, by a liquid handling robot. After drying, eggs (-30 per well) were infested onto a netted lid which was suspended above the diet. The eggs hatch and L1 larvae move down to the diet. The samples were assessed for mortality 9 days after infestation.
The following compounds gave an effect of at least 80% mortality at an application rate of 500 ppm: […]

[4] = tested on: Chilo suppressalis (Striped rice stemborer); test: Example B4: Chilo suppressalis (Striped rice stemborer), artificial diet; assay type: in vivo; settings: 144 h, application rate 200 ppm, L2 larvae, 6 days after infestation, read-out: control in at least one of the three categories (mortality, anti-feedant effect, or growth inhibition)
Experimental: Example B4: Chilo suppressalis (Striped rice stemborer) 24-well microtiter plates with artificial diet were treated with aqueous test solutions prepared from 10′000 ppm DMSO stock solutions by pipetting. After drying, the plates were infested with L2 larvae (6-8 per well). The samples were assessed for mortality, anti-feeding effect, and growth inhibition in comparison to untreated samples 6 days after infestation. Control of Chilo suppressalis by a test sample is given when at least one of the categories mortality, anti-feedant effect, and growth inhibition is higher than the untreated sample.

[5] = tested on: Plutella xylostella (Diamond back moth); test: Example B5: Plutella xylostella (Diamond back moth), artificial diet, 24-well; assay type: in vivo; settings: 192 h, application rate 200 ppm, eggs, 8 days after infestation, read-out: control in at least one of the two categories (mortality or growth inhibition)
Experimental: Example B5: Plutella xylostella (Diamond back moth)
24-well microtiter plates with artificial diet were treated with aqueous test solutions prepared from 10′000 ppm DMSO stock solutions by pipetting. After drying, Plutella eggs were pipetted through a plastic stencil onto a gel blotting paper and the plate was closed with it. The samples were assessed for mortality and growth inhibition in comparison to untreated samples 8 days after infestation.
as §1

CC(NC(=O)c1cc(C(F)(F)F)nc(C2(C#N)CC2)c1)c1ncnn1-c1ccc(C#N)cn1 (stereo not shown) [P3, 2-(1-cyanocyclopropyl)-N-[1-[2-(5-cyano-2-pyridyl)-1,2,4-triazol-3-yl]ethyl]-6-(trifluoromethyl)pyridine-4-carboxamide]
percent control (mortality, anti-feedant effect or growth inhibition) at 200 ppm [1]: ≥ 80% | percent control (mortality or growth inhibition) at 200 ppm [2]: ≥ 80% | mortality at 500 ppm [3]: ≥ 80% | percent control (mortality, anti-feedant effect or growth inhibition) at 200 ppm [4]: ≥ 80% | percent control (mortality or growth inhibition) at 200 ppm [5]: ≥ 80%

CC(NC(=O)c1cc(C2CC2)cc(C(F)(F)F)c1)c1ncnn1-c1ccc(C#N)cn1 (stereo not shown) [P14, N-[1-[2-(5-cyano-2-pyridyl)-1,2,4-triazol-3-yl]ethyl]-3-cyclopropyl-5-(trifluoromethyl)benzamide]
percent control (mortality, anti-feedant effect or growth inhibition) at 200 ppm [1]: ≥ 80% | percent control (mortality or growth inhibition) at 200 ppm [2]: ≥ 80% | mortality at 500 ppm [3]: ≥ 80% | percent control (mortality, anti-feedant effect or growth inhibition) at 200 ppm [4]: ≥ 80% | percent control (mortality or growth inhibition) at 200 ppm [5]: ≥ 80%

CC(NC(=O)c1cc(C(F)(F)F)cc(S(=O)(=O)C(F)(F)F)c1)c1ncnn1-c1ncc(OC(F)F)cn1 (stereo not shown) [P27, N-[1-[2-[5-(difluoromethoxy)pyrimidin-2-yl]-1,2,4-triazol-3-yl]ethyl]-3-(trifluoromethyl)-5-(trifluoromethylsulfonyl) benzamide]
percent control (mortality, anti-feedant effect or growth inhibition) at 200 ppm [1]: ≥ 80% | mortality at 500 ppm [3]: ≥ 80% | percent control (mortality, anti-feedant effect or growth inhibition) at 200 ppm [4]: ≥ 80% | percent control (mortality or growth inhibition) at 200 ppm [5]: ≥ 80%

CC(NC(=O)c1cc(C(F)(F)F)cc(S(=O)(=O)C(F)(F)F)c1)c1ncnn1-c1ccc(OC(F)F)cn1 (stereo not shown) [P28, N-[1-[2-[5-(difluoromethoxy)-2-pyridyl]-1,2,4-triazol-3-yl]ethyl]-3-(trifluoromethyl)-5-(trifluoromethylsulfonyl) benzamide]
percent control (mortality, anti-feedant effect or growth inhibition) at 200 ppm [1]: ≥ 80% | mortality at 500 ppm [3]: ≥ 80% | percent control (mortality, anti-feedant effect or growth inhibition) at 200 ppm [4]: ≥ 80% | percent control (mortality or growth inhibition) at 200 ppm [5]: ≥ 80%

CC(NC(=O)c1cc(C(F)(F)F)cc(S(=O)(=O)C(F)(F)F)c1)c1ncnn1-c1ncc(OCC(F)(F)F)cn1 (stereo not shown) [P29, N-[1-[2-[5-(2,2,2-trifluoroethoxy)pyrimidin-2-yl]-1,2,4-triazol-3-yl]ethyl]-3-(trifluoromethyl)-5-(trifluoromethylsulfonyl) benzamide]
mortality at 500 ppm [3]: ≥ 80% | percent control (mortality, anti-feedant effect or growth inhibition) at 200 ppm [4]: ≥ 80% | percent control (mortality or growth inhibition) at 200 ppm [5]: ≥ 80%

CC(NC(=O)c1cc(C(F)(F)F)cc(S(=O)(=O)C(F)(F)F)c1)c1ncnn1-c1ccc(OCC(F)(F)F)cn1 (stereo not shown) [P32, N-[1-[2-[5-(2,2,2-trifluoroethoxy)-2-pyridyl]-1,2,4-triazol-3-yl]ethyl]-3-(trifluoromethyl)-5-(trifluoromethylsulfonyl) benzamide]
melting point: 125 to 130 °C

CC(NC(=O)c1cc(C(F)(F)F)nc(C2(C#N)CC2)c1)c1ncnn1-c1ccc(OCC(F)(F)F)cn1 (stereo not shown) [P33, 2-(1-cyanocyclopropyl)-N-[1-[2-[5-(2,2,2-trifluoroethoxy)-2-pyridyl]-1,2,4-triazol-3-yl]ethyl]-6-(trifluoromethyl) pyridine-4-carboxamide]
melting point: 170 to 175 °C

CC(NC(=O)c1cc(C(F)(F)F)cc(C2(C#N)CC2)c1)c1ncnn1-c1ccc(OCC(F)(F)F)cn1 (stereo not shown) [P34, 3-(1-cyanocyclopropyl)-N-[1-[2-[5-(2,2,2-trifluoroethoxy)-2-pyridyl]-1,2,4-triazol-3-yl]ethyl]-5-(trifluoromethyl) benzamide]
melting point: 70 to 75 °C

CC(NC(=O)c1cc(C(F)(F)F)cc(C(F)(F)C2CC2)c1)c1ncnn1-c1ccc(OCC(F)(F)F)cn1 (stereo not shown) [P35, 3-[cyclopropyl(difluoro)methyl]-N-[1-[2-[5-(2,2,2-trifluoroethoxy)-2-pyridyl]-1,2,4-triazol-3-yl]ethyl]-5-(trifluoromethyl) benzamide]
melting point: 48 to 52 °C
